Measured values as given in patent US10287255B2, “Compounds as histone deacetylase 6 inhibitors and pharmaceutical compositions comprising the same” (CHONG KUN DANG PHARMACEUTICAL CORP., priority 2014, dated 2019).

Tests used:
human recombinant HDAC1 = target: T1, human recombinant HDAC1 (Homo sapiens, UniProt Q13547); assay: HDAC1 enzyme activity inhibition assay (in vitro, fluorimetric); type: biochemical; conditions: human recombinant HDAC1, fluorimetric kit, 30° C. 60 minutes
T1 construct: purchased Enzo Life Science BML-SE456
T1 sequence (Q13547 whole entry): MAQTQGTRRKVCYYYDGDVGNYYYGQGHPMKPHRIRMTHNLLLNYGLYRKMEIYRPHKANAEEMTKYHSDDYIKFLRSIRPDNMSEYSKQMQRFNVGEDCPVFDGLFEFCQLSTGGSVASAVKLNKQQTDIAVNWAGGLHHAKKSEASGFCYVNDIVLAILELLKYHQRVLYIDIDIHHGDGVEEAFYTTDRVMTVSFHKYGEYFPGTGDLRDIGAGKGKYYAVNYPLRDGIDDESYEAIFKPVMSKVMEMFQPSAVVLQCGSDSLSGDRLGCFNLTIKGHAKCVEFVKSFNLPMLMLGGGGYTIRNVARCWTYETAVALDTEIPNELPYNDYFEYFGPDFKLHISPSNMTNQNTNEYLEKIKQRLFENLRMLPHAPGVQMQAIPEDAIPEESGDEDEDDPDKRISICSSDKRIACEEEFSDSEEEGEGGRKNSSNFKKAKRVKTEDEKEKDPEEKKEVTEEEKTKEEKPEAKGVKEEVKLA
Procedure, shortened: (§1)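 IC50 values derive from fluorescence (Ex 360, Em 460) after developer treatment (30 min) of reactions of recombinant human HDAC1 or HDAC6 with 10 μM Fluor de Lys-SIRT1 substrate (60 min, 30 °C). Compounds were serially diluted 5-fold; 0.3 μg enzyme was used for HDAC1, with HDAC6 tested identically.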

human recombinant HDAC6 = target: T2, human recombinant HDAC6 (Homo sapiens, UniProt Q9UBN7); assay: HDAC6 enzyme activity inhibition assay (in vitro, fluorimetric); type: biochemical; conditions: for HDAC6 selectivity (fold): HDAC6 selectivity over HDAC1; for IC50: human recombinant HDAC6, fluorimetric kit, same protocol as HDAC1
T2 construct: purchased Calbiochem 382180
T2 sequence (Q9UBN7 1-1215): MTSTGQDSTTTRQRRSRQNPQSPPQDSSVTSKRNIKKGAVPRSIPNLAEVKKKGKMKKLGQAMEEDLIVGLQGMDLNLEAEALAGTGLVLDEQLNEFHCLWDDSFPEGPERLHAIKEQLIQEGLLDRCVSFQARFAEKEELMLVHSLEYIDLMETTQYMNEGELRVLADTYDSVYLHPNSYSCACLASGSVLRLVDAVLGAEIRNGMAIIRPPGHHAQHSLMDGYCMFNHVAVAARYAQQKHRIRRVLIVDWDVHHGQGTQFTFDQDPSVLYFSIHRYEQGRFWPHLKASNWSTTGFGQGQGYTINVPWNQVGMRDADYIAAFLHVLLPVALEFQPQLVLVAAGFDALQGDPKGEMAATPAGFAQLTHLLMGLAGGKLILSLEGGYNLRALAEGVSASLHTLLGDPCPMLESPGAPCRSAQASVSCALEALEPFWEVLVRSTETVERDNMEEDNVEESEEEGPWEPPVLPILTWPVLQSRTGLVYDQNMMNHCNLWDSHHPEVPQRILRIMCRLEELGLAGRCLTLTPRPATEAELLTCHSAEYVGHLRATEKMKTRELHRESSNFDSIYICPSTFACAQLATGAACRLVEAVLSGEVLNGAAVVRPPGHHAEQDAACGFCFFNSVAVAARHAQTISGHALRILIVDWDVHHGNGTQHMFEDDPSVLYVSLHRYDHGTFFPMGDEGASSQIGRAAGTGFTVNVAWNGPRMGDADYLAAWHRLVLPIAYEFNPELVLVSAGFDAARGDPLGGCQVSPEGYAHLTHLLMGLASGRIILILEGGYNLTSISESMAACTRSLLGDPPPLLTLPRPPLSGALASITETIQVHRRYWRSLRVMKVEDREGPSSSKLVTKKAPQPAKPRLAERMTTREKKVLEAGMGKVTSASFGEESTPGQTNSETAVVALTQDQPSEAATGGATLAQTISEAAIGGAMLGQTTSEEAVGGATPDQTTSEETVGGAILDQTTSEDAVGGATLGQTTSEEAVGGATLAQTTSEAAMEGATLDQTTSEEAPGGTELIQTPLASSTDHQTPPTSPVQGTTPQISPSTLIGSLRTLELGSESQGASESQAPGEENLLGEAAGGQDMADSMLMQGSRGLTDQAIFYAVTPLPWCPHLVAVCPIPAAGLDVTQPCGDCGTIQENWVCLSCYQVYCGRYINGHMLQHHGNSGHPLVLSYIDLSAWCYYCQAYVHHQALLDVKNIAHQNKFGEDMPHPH
Procedure, shortened: as §1

Compound: C[C@@H]1CN(Cc2ccc(C(=O)NO)cc2)C[C@H](C)N1C(=O)c1cccc(CN2CCCCC2)c1 [Compound 424, 4-(((3R,5S)-3,5-dimethyl-4-(3-(piperidin-1-ylmethyl)benzoyl)piperazin-1-yl)methyl)-N-hydroxybenzamide]
- IC50 (human recombinant HDAC1): 1200 nM
- HDAC6 selectivity (fold) (human recombinant HDAC6): 27 fold
- IC50 (human recombinant HDAC6): 43 nM

Compound: C[C@@H]1CN(C(=O)c2ccccc2)C[C@H](C)N1Cc1ccc(C(=O)NO)cc1 [Compound 080, 4-(((2S,6R)-4-benzoyl-2,6-dimethylpiperazin-1-yl)methyl)-N-hydroxybenzamide]
- IC50 (human recombinant HDAC1): 6600 nM
- HDAC6 selectivity (fold) (human recombinant HDAC6): 37 fold
- IC50 (human recombinant HDAC6): 179 nM

Compound: C[C@@H]1CN(Cc2ccc(C(=O)NO)cc2)C[C@H](C)N1C(=O)c1ccc(-c2ccco2)cc1 [Compound 340, 4-(((3R,5S)-4-(4-(furan-2-yl)benzoyl)-3,5-dimethylpiperazin-1-yl)methyl)-N-hydroxybenzamide]
- IC50 (human recombinant HDAC1): 1600 nM
- HDAC6 selectivity (fold) (human recombinant HDAC6): 3 fold
- IC50 (human recombinant HDAC6): 606 nM

Compound: C[C@@H]1CN(C(=O)c2ccccc2C2=CCC(C)(C)CC2)C[C@H](C)N1Cc1ccc(C(=O)NO)cc1 [Compound 280, 4-(((2S,6R)-4-(4′,4′-dimethyl-2′,3′,4′,5′-tetrahydro-[1,1′-biphenyl]-2-carbonyl)-2,6-dimethylpiperazin-1-yl)methyl)-N-hydroxybenzamide]
- IC50 (human recombinant HDAC1): 17700 nM
- HDAC6 selectivity (fold) (human recombinant HDAC6): 46 fold
- IC50 (human recombinant HDAC6): 388 nM

Compound: C[C@@H]1CN(Cc2ccc(C(=O)NO)cc2)C[C@H](C)N1C(=O)Nc1cccc(Cl)c1 [Compound 099, (2S,6R)-N-(3-chlorophenyl)-4-(4-(hydroxycarbamoyl)benzyl)-2,6-dimethylpiperazine-1-carboxamide]
- IC50 (human recombinant HDAC1): 12400 nM
- HDAC6 selectivity (fold) (human recombinant HDAC6): 51 fold
- IC50 (human recombinant HDAC6): 242 nM

Compound: C[C@@H]1CN(Cc2ccc(/C=C/C(=O)NO)cc2)C[C@H](C)N1Cc1ccccc1 [Compound 172, (E)-3-(4-(((3R,5S)-4-benzyl-3,5-dimethylpiperazin-1-yl)methyl)phenyl)-N-hydroxyacrylamide]
- IC50 (human recombinant HDAC1): 1300 nM
- HDAC6 selectivity (fold) (human recombinant HDAC6): 35 fold
- IC50 (human recombinant HDAC6): 38 nM

Compound: C[C@@H]1CN(Cc2ccc(C(=O)NO)cc2)C[C@H](C)N1Cc1cc(F)ccc1F [Compound 212, 4-(((3R,5S)-4-(2,5-difluorobenzyl)-3,5-dimethylpiperazin-1-yl)methyl)-N-hydroxybenzamide]
- IC50 (human recombinant HDAC1): > 10000 nM
- HDAC6 selectivity (fold) (human recombinant HDAC6): >28 fold
- IC50 (human recombinant HDAC6): 358 nM

Compound: C[C@@H]1CN(Cc2ccc(C(=O)NO)cc2)C[C@H](C)N1C(=O)c1cccc(-c2ccco2)c1 [Compound 242, 4-(((3R,5S)-4-(3-(furan-2-yl)benzoyl)-3,5-dimethylpiperazin-1-yl)methyl)-N-hydroxybenzamide]
- IC50 (human recombinant HDAC1): 2400 nM
- HDAC6 selectivity (fold) (human recombinant HDAC6): 24 fold
- IC50 (human recombinant HDAC6): 98 nM

Compound: C[C@@H]1CN(Cc2ccc(C(=O)NO)cc2)C[C@H](C)N1Cc1ccc(-c2ccoc2)cc1 [Compound 309, 4-(((3R,5S)-4-(4-(furan-3-yl)benzyl)-3,5-dimethylpiperazin-1-yl)methyl)-N-hydroxybenzamide]
- IC50 (human recombinant HDAC1): 1600 nM
- HDAC6 selectivity (fold) (human recombinant HDAC6): 21 fold
- IC50 (human recombinant HDAC6): 73 nM

Compound: C[C@@H]1CN(C(=O)Nc2cccc(Cl)c2)C[C@H](C)N1Cc1ccc(C(=O)NO)cc1 [Compound 104, (3R,5S)-N-(3-chlorophenyl)-4-(4-(hydroxycarbamoyl)benzyl)-3,5-dimethylpiperazine-1-carboxamide]
- IC50 (human recombinant HDAC1): 700 nM
- HDAC6 selectivity (fold) (human recombinant HDAC6): 9 fold
- IC50 (human recombinant HDAC6): 82 nM

Compound: C[C@@H]1CN(Cc2ccc(C(=O)NO)cc2)C[C@H](C)N1Cc1cccc(C2=CCOCC2)c1 [Compound 346, 4-(((3R,5S)-4-(3-(3,6-dihydro-2H-pyran-4-yl)benzyl)-3,5-dimethylpiperazin-1-yl)methyl)-N-hydroxybenzamide]
- IC50 (human recombinant HDAC1): 8300 nM
- HDAC6 selectivity (fold) (human recombinant HDAC6): 332 fold
- IC50 (human recombinant HDAC6): 25 nM

Compound: C[C@@H]1CN(Cc2ccc(C(=O)NO)cc2)C[C@H](C)N1Cc1cccc(CN2CCCC2)c1 [Compound 427, 4-(((3R,5S)-3,5-dimethyl-4-(3-(pyrrolidin-1-ylmethyl)benzyl)piperazin-1-yl)methyl)-N-hydroxybenzamide]
- IC50 (human recombinant HDAC1): 6000 nM
- HDAC6 selectivity (fold) (human recombinant HDAC6): 40 fold
- IC50 (human recombinant HDAC6): 152 nM

Compound: C[C@@H]1CN(Cc2ccc(C(=O)NO)cc2)C[C@H](C)N1C(=O)Nc1ccccc1 [Compound 159, (2S,6R)-4-(4-(hydroxycarbamoyl)benzyl)-2,6-dimethyl-N-phenylpiperazine-1-carboxamide]
- IC50 (human recombinant HDAC1): 3600 nM
- HDAC6 selectivity (fold) (human recombinant HDAC6): 109 fold
- IC50 (human recombinant HDAC6): 33 nM

Compound: C[C@@H]1CN(Cc2ccc(C(=O)NO)cc2)C[C@H](C)N1C(=O)c1ccc(CN2CCN(C)CC2)cc1 [Compound 462, 4-(((3R,5S)-3,5-dimethyl-4-(4-((4-methylpiperazin-1-yl)methyl)benzoyl)piperazin-1-yl)methyl)-N-hydroxybenzamide]
- IC50 (human recombinant HDAC1): 3200 nM
- HDAC6 selectivity (fold) (human recombinant HDAC6): 12 fold
- IC50 (human recombinant HDAC6): 264 nM

Compound: CCN(CC)C[C@@H](C)NCc1cccc(CN2[C@H](C)CN(Cc3ccc(C(=O)NO)cc3)C[C@@H]2C)c1 [Compound 455, 4-(((3R,5S)-4-(3-(((1-(diethylamino)propan-2-yl)amino)methyl)benzyl)-3,5-dimethylpiperazin-1-yl)methyl)-N-hydroxybenzamide]
- IC50 (human recombinant HDAC1): 9600 nM
- HDAC6 selectivity (fold) (human recombinant HDAC6): 93 fold
- IC50 (human recombinant HDAC6): 103 nM

Compound: C[C@@H]1CN(Cc2ccc(C(=O)NO)cc2)C[C@H](C)N1Cc1cccc(-c2ccco2)c1 [Compound 342, 4-(((3R,5S)-4-(3-(furan-2-yl)benzyl)-3,5-dimethylpiperazin-1-yl)methyl)-N-hydroxybenzamide]
- IC50 (human recombinant HDAC1): 8700 nM
- HDAC6 selectivity (fold) (human recombinant HDAC6): 456 fold
- IC50 (human recombinant HDAC6): 19 nM

Compound: C[C@@H]1CN(Cc2ccc(C(=O)NO)cc2)C[C@H](C)N1Cc1ccccc1C1=CCN(CC(F)(F)F)CC1 [Compound 483, 4-(((3R,5S)-3,5-dimethyl-4-(2-(1-(2,2,2,2-trifluoroethyl)-1,2,3,6-tetrahydropyridin-4-yl)benzyl)piperazin-1-yl)methyl)-N-hydroxybenzamide]
- IC50 (human recombinant HDAC1): 17100 nM
- HDAC6 selectivity (fold) (human recombinant HDAC6): 166 fold
- IC50 (human recombinant HDAC6): 103 nM

Compound: C[C@@H]1CN(Cc2ccc(C(=O)NO)cc2)C[C@H](C)N1C(=O)c1ccccn1 [Compound 123, 4-(((3R,5S)-3,5-dimethyl-4-picolinoylpiperazin-1-yl)methyl)-N-hydroxybenzamide]
- IC50 (human recombinant HDAC1): 15500 nM
- HDAC6 selectivity (fold) (human recombinant HDAC6): 2584 fold
- IC50 (human recombinant HDAC6): 6 nM

Compound: C[C@@H]1CN(Cc2ccc(C(=O)NO)cc2)C[C@H](C)N1Cc1ccc(OCC2CCN(CC(C)(C)F)CC2)cc1 [Compound 388, 4-(((3R,5S)-4-(4-((1-(2-fluoro-2-methylpropyl)piperidin-4-yl)methoxy)benzyl)-3,5-dimethylpiperazin-1-yl)methyl)-N-hydroxybenzamide]
- IC50 (human recombinant HDAC1): 9000 nM
- HDAC6 selectivity (fold) (human recombinant HDAC6): 109 fold
- IC50 (human recombinant HDAC6): 83 nM

Compound: CC(C)CCN1[C@H](C)CN(Cc2ccc(C(=O)NO)cc2)C[C@@H]1C [Compound 270, N-hydroxy-4-(((3R,5S)-4-isopentyl-3,5-dimethylpiperazin-1-yl)methyl)benzamide]
- IC50 (human recombinant HDAC1): > 10000 nM
- HDAC6 selectivity (fold) (human recombinant HDAC6): >5 fold
- IC50 (human recombinant HDAC6): 2220 nM

Compound: CC(CN(C)Cc1ccccc1)NCc1cccc(CN2[C@H](C)CN(Cc3ccc(C(=O)NO)cc3)C[C@@H]2C)c1 (stereo partly drawn) [Compound 456, 4-(((3R,5S)-4-(3-(((1-(benzyl(methyl)amino)propan-2-yl)amino)methyl)benzyl)-3,5-dimethylpiperazin-1-yl)methyl)-N-hydroxybenzamide]
- IC50 (human recombinant HDAC1): 11100 nM
- HDAC6 selectivity (fold) (human recombinant HDAC6): 77 fold
- IC50 (human recombinant HDAC6): 144 nM

Compound: CCN1CCN(Cc2cccc(CN3[C@H](C)CN(Cc4ccc(C(=O)NO)cc4)C[C@@H]3C)c2)CC1 [Compound 429, 4-(((3R,5S)-4-(3-((4-ethylpiperazin-1-yl)methyl)benzyl)-3,5-dimethylpiperazin-1-yl)methyl)-N-hydroxybenzamide]
- IC50 (human recombinant HDAC1): 4400 nM
- HDAC6 selectivity (fold) (human recombinant HDAC6): 44 fold
- IC50 (human recombinant HDAC6): 100 nM
